Source: patent US11926616B2, “Aminopyrazine diol compounds as PI3K-γ inhibitors” (Incyte Corporation, priority 2018, dated 2024)
Where two headings read alike, the source gives them in different places.

Legend:
[1] = biological target: PI3Kδ (p110δ/p85α) Recombinant Human Protein (Homo sapiens (Human), UniProt O00329); assay: PI3Kδ Scintillation Proximity Assay; type: biochemical; conditions: 20 μM PIP2, 2 μM ATP, 3.4 nM PI3Kδ, 120 min, room temperature
Source text: Example C. PI3Kδ Scintillation Proximity Assay Materials: [γ-^33P]ATP (10 mCi/mL) and Wheat Germ Agglutinin (WGA) YSi SPA Scintillation Beads was purchased from Perkin Elmer (Waltham, MA). Lipid kinase substrate, D-myo-Phosphatidylinositol 4,5-bisphosphate (PtdIns(4,5)P2)D (+)-sn-1,2-di-O-octanoylglyceryl, 3-O-phospho linked (PIP2), CAS 204858-53-7, was purchased from Echelon Biosciences (Salt Lake City, UT). PI3Kδ (p110δ/p85α) Recombinant Human Protein was purchased from Eurofins (St Charles, MO). ATP, MgCl2, DTT, EDTA, MOPS and CHAPS were purchased from Sigma Aldrich (St. Louis, MO). The kinase reaction was conducted in polystyrene 384-well Greiner Bio-one white plate from Thermo Fisher Scientific in a final volume of 25 μL. Inhibitors were first diluted serially in DMSO and added to the plate wells before the addition of other reaction components. The final concentration of DMSO in the assay was 2%. The PI3Kδ assay was carried out at room temperature in 20 mM MOPS, pH 6.7, 10 mM MgCl2, 5 mM DTT and CHAPS 0.03%. Reactions were initiated by the addition of ATP, the final reaction mixture consisted of 20 μM PIP2, 2 μM ATP, […] [γ-^33P] ATP, 3.4 nM PI3Kδ. Reactions were incubated for 120 min and terminated by the addition of 40 μL SPA beads suspended in quench buffer: 163 mM potassium phosphate pH 7.8, 20% glycerol, 25 mM EDTA. The final concentration of SPA beads is 1.0 mg/mL. After the plate sealing, plates were shaken overnight at room temperature and centrifuged at 1500 rpm for 10 min, the radioactivity of the product was determined by scintillation counting on Topcount (PerkinElmer). IC50 determination was performed by fitting the curve of percent of the solvent control activity versus the log of the inhibitor concentration using the GraphPad Prism 6.0 software.

[2] = biological target: PI3Kγ (p110γ) Recombinant Human Protein (Homo sapiens (Human), UniProt P48736); assay: PI3K-γ Scintillation Proximity Assay; type: biochemical; conditions: 20 μM PIP2, 2 μM ATP, 13 nM PI3Kγ, 120 min, room temperature
PI3Kγ (p110γ) Recombinant Human Protein, sequence (P48736 whole entry): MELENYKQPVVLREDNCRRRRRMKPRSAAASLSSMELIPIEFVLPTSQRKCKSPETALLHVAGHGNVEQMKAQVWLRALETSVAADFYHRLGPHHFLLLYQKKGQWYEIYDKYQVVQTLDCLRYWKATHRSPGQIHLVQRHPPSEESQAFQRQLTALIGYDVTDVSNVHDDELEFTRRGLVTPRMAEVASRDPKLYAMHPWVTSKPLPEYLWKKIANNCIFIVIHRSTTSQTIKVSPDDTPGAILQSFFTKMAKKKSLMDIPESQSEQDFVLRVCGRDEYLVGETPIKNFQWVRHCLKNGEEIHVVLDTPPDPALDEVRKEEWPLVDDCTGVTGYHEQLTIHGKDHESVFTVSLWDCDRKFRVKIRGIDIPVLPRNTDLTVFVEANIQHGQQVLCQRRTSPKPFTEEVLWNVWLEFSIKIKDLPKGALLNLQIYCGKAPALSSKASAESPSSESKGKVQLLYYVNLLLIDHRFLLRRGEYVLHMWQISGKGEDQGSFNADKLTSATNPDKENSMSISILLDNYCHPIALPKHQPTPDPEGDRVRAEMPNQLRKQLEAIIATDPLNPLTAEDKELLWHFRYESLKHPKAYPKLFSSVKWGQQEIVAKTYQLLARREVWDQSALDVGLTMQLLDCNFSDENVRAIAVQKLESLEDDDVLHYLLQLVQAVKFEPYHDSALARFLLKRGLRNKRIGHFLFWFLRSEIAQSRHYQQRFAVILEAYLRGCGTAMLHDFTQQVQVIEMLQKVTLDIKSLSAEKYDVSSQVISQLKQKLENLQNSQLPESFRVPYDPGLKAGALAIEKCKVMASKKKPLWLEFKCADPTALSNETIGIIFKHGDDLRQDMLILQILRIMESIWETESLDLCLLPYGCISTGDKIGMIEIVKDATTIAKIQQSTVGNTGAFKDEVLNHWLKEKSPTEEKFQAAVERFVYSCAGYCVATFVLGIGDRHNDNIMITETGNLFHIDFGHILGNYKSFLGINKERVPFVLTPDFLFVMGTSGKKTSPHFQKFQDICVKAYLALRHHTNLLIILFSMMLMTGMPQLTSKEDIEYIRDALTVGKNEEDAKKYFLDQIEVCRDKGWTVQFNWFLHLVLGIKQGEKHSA
Source text: Example B. PI3K-γ Scintillation Proximity Assay Materials: [γ-^33P]ATP (10 mCi/mL) and Wheat Germ Agglutinin (WGA) YSi SPA Scintillation Beads was purchased from Perkin Elmer (Waltham, MA). Lipid kinase substrate, D-myo-Phosphatidylinositol 4,5-bisphosphate (PtdIns(4,5)P2)D (+)-sn-1,2-di-O-octanoylglyceryl, 3-O-phospho linked (PIP2), CAS 204858-53-7, was purchased from Echelon Biosciences (Salt Lake City, UT). PI3Kγ (p110γ) Recombinant Human Protein was purchased from Life technology (Grand Island, NY). ATP, MgCl2, DTT, EDTA, MOPS and CHAPS were purchased from Sigma Aldrich (St. Louis, MO). The kinase reaction was conducted in polystyrene 384-well Greiner Bio-one white plate from Thermo Fisher Scientific in a final volume of 25 μL. Inhibitors were first diluted serially in DMSO and added to the plate wells before the addition of other reaction components. The final concentration of DMSO in the assay was 2%. The PI3Kγ assay was carried out at room temperature in 20 mM MOPS, pH 6.7, 10 mM MgCl2, 5 mM DTT and CHAPS 0.03%. Reactions were initiated by the addition of ATP, the final reaction mixture consisted of 20 μM PIP2, 2 μM ATP, 0.5 μCi [γ-^33P] ATP, 13 nM PI3Kγ. Reactions were incubated for 120 min and terminated by the addition of 40 μL SPA beads suspended in quench buffer: 163 mM potassium phosphate pH 7.8, 20% glycerol, 25 mM EDTA. The final concentration of SPA beads is 1.0 mg/mL. After the plate sealing, plates were shaken overnight at room temperature and centrifuged at 1500 rpm for 10 min, the radioactivity of the product was determined by scintillation counting on Topcount (Perkin-Elmer). IC50 determination was performed by fitting the curve of percent of the solvent control activity versus the log of the inhibitor concentration using the GraphPad Prism 6.0 software.

[3] = test system: Phosphorylated Ribosomal Protein S6 (RPS6) in THP-1 cells; assay: THP-1 RPS6 ELISA Assay; type: cell-based, Human; conditions: Homo sapiens
Experimental: Example A. THP-1 RPS6 ELISA Assay
To measure the Phosphorylated Ribosomal Protein S6 (RPS6) in cell lysates, THP-1 cells (Human Acute Monocytic Leukemia) are purchased from ATCC (Manassas, VA) and maintained in RPMI with 10% FBS (Gibco/Life Technologies, Carlsbad, CA). For the assay, THP-1 cells are serum starved overnight in RPMI, then plated in RPMI (2×10^5 cells/well in 90 μL) into 96-well flat-bottom tissue culture treated plates (Corning, Corning, NY), in the presence or absence of a concentration range of test compounds. Covered plates are incubated for 2 hours at 37° C., 5% CO2 then treated with or without 10 nM MCP-1(MYBioSource, San Diego, CA) for 15 minutes at 37° C., 5% CO2. Plates are centrifuged at 1600 RPM and supernatants are removed. Cells are lysed in Lysis Buffer (Cell Signaling, Danvers, MA) with Protease Inhibitor (Calbiochem/EMD, Germany), PMSF (Sigma, St Louis MO), HALTS (Thermo Fisher, Rockford, IL) for 30 min on wet ice. Cell lysates are frozen at −80° C. before testing. The lysates are tested in the Human/Mouse/Rat Phospho-RPS6 ELISA (R&D Systems, Inc. Minn, MN). The plate is measured using a microplate reader (SpectraMax M5—Molecular Devices, LLC Sunnyvale, CA) set to 450 nm with a wavelength correction of 540. IC50 determination is performed by fitting the curve of inhibitor percent inhibition versus the log of the inhibitor concentration using the GraphPad Prism 5.0 software.

[4] = THP-1 cells, serum starved, 2 hours compound, 10 nM MCP-1 for 15 minutes, Phospho-RPS6 ELISA, read-out: PI3Kγ_THP1_RPS6_ELISA IC50

PI3Kδ (p110δ/p85α) Recombinant Human Protein, sequence (O00329 whole entry): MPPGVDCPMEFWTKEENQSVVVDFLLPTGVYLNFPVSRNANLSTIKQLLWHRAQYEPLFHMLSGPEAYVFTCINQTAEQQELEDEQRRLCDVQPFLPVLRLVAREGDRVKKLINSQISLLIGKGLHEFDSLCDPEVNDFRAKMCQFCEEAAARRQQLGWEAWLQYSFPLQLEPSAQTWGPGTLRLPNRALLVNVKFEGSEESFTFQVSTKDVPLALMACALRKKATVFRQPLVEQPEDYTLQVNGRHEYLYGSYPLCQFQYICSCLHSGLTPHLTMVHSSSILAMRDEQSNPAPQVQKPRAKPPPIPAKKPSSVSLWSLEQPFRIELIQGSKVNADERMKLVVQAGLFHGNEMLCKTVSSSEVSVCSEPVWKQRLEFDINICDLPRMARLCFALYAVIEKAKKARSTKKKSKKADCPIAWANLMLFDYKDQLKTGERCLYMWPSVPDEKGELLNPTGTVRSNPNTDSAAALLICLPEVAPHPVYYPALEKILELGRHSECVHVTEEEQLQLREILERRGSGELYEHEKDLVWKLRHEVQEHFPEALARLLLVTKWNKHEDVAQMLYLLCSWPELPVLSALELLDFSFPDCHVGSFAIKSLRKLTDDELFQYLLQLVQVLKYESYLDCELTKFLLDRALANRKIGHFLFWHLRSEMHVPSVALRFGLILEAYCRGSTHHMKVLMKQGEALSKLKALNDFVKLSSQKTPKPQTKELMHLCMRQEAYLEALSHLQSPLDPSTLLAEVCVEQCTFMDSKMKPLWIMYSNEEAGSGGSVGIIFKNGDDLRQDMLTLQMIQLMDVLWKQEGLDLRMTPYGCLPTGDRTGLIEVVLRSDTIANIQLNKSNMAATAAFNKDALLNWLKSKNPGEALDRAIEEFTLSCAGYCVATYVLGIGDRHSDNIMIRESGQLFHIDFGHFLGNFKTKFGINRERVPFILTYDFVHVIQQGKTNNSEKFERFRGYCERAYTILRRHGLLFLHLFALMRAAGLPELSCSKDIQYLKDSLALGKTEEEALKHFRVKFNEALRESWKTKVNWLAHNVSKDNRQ
PI3Kδ (p110δ/p85α) Recombinant Human Protein, sequence (P27986 whole entry partner): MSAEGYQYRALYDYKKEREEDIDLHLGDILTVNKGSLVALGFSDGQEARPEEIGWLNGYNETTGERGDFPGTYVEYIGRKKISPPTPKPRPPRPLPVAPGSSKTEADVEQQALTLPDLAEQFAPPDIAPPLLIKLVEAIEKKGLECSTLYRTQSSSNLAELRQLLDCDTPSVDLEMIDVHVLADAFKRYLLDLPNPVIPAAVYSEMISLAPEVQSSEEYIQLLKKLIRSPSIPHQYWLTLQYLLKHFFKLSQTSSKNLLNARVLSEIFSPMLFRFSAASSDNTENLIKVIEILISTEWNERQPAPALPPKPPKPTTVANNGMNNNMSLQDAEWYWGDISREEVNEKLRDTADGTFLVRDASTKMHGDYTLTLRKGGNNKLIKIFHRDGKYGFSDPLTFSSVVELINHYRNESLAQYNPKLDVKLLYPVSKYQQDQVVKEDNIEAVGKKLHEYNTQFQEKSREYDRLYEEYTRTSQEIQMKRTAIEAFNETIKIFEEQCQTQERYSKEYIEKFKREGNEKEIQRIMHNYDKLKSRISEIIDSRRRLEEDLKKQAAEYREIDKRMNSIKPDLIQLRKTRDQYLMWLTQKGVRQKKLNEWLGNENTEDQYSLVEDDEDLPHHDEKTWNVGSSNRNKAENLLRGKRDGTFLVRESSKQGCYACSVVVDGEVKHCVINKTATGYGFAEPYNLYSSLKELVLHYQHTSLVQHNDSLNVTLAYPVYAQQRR

| Compound | IC50 [1] [µM] | IC50 [2] [µM] | IC50 [3, 4] [nM] | further results |
| --- | --- | --- | --- | --- |
| [2H]C([2H])([2H])n1nccc1-c1nc(-c2cc(C(O)(CO)C(F)(F)F)ccc2C)cnc1N (single isomer, unassigned) [Example 1b, 2-(3-(5-Amino-6-(1-(methyl-d3)-1H-pyrazol-5-yl)pyrazin-2-yl)-4-methylphenyl)-3,3,3-trifluoropropane-1,2-diol] | ≤ 0.5 | ≤ 0.5 | – | – |
| Cc1ccc(C(O)(CO)C(F)(F)F)cc1-c1cnc(N)c(-c2cnn(C)c2)n1 (single isomer, unassigned) [Example 2, 2-(3-(5-Amino-6-(1-methyl-1H-pyrazol-4-yl)pyrazin-2-yl)-4-methylphenyl)-3,3,3-trifluoropropane-1,2-diol] | – | – | < 100 | – |
| Cc1ccc(C(O)(CO)C(F)(F)F)cc1-c1cnc(N)c(-c2cn[nH]c2)n1 (single isomer, unassigned) [Example 3, 2-(3-(5-Amino-6-(1H-pyrazol-4-yl)pyrazin-2-yl)-4-methylphenyl)-3,3,3-trifluoropropane-1,2-diol] | – | – | < 100 | – |
| Cc1cc(-c2nc(-c3cc(C(O)(CO)C(F)(F)F)ccc3C)cnc2N)on1 (single isomer, unassigned) [Example 4, 2-(3-(5-Amino-6-(3-methylisoxazol-5-yl)pyrazin-2-yl)-4-methylphenyl)-3,3,3-trifluoropropane-1,2-diol] | – | – | < 100 | – |
| Cc1ccc(C(O)(CO)C(F)(F)F)cc1-c1cnc(N)c(-c2cnsc2)n1 (single isomer, unassigned) [Example 5, 2-(3-(5-Amino-6-(isothiazol-4-yl)pyrazin-2-yl)-4-methylphenyl)-3,3,3-trifluoropropane-1,2-diol] | – | – | < 100 | – |
| Cc1ccc(C(O)(CO)C(F)(F)F)cc1-c1cnc(N)c(-c2ccns2)n1 (single isomer, unassigned) [Example 6, 2-(3-(5-Amino-6-(isothiazol-5-yl)pyrazin-2-yl)-4-methylphenyl)-3,3,3-trifluoropropane-1,2-diol] | – | – | < 100 | – |
| Cc1cc(-c2nc(-c3cc(C(O)(CO)C(F)(F)F)ccc3C)cnc2N)sn1 (single isomer, unassigned) [Example 7, 2-(3-(5-amino-6-(3-methylisothiazol-5-yl)pyrazin-2-yl)-4-methylphenyl)-3,3,3-trifluoropropane-1,2-diol] | – | – | < 100 | – |
| Cc1ncc(-c2nc(-c3cc(C(O)(CO)C(F)(F)F)ccc3C)cnc2N)s1 (single isomer, unassigned) [Example 10, 2-(3-(5-Amino-6-(2-methylthiazol-5-yl)pyrazin-2-yl)-4-methvlphenyl)-3,3,3-trifluoropropane-1,2-diol] | – | – | < 100 | – |
| Cc1ccc(C(O)(CO)C(F)(F)F)cc1-c1cnc(N)c(-c2cnco2)n1 (single isomer, unassigned) [Example 11, 2-(3-(5-Amino-6-(oxazol-5-yl)pyrazin-2-yl)-4-methylphenyl)-3,3,3-trifluoropropane-1,2-diol] | – | – | < 100 | – |
| Cc1ccc(C(O)(CO)C(F)(F)F)cc1-c1cnc(N)c(-n2ccnn2)n1 (single isomer, unassigned) [Example 13, 2-(3-(5-Amino-6-(1H-1,2,3-triazol-1-yl)pyrazin-2-yl)-4-methylphenyl)-3,3,3-trifluoropropane-1,2-diol] | – | – | < 100 | – |
| Cc1ccc([C@](O)(CO)C(F)F)cc1-c1cnc(N)c(C(=O)NC(C)C)n1 (single isomer, unassigned) [Example 46] | – | – | – | IC50 ([3]; THP-1, read-out: PI3Kγ_THP1_RPS6_ELISA IC50 (nM)): < 100 nM |

Second part, led by results:

| IC50 [1] [µM] | IC50 [2] [µM] | IC50 [3, 4] [nM] | Compound | further results |
| --- | --- | --- | --- | --- |
| – | – | < 500 | Cc1ccc(C(O)(CO)C(F)(F)F)cc1-c1cnc(N)c(-n2cncn2)n1 (single isomer, unassigned) [Example 15, 2-(3-(5-Amino-6-(1H-1,2,4-triazol-1-yl)pyrazin-2-yl)-4-methylphenyl)-3,3,3-trifluoropropane-1,2-diol] | – |
| ≤ 0.5 | ≤ 0.1 | – | Cc1ccc(C(O)(CO)C(F)(F)F)cc1-c1cnc(N)c(C(F)(F)F)n1 (single isomer, unassigned) [Example 25, 2-(3-(5-Amino-6-(trifluoromethyl)pyrazin-2-yl)-4-methylphenyl)-3,3,3-trifluoropropane-1,2-diol] | – |
| ≤ 0.1 | ≤ 0.1 | – | Cc1ccc(C(O)(CO)C(F)(F)F)cc1-c1cnc(N)c(C(=O)NC23CC(CO)(C2)C3)n1 (single isomer, unassigned) [Example 32] | – |
| – | – | < 100 | [2H]C([2H])([2H])c1ccc(C(O)(CO)C(F)(F)F)cc1-c1cnc(N)c(C(=O)NC23CC(CO)(C2)C3)n1 (single isomer, unassigned) [Example 32] | – |
| ≤ 0.1 | ≤ 0.1 | – | Cc1ccc(C(O)(CO)C(F)(F)F)cc1-c1cnc(N)c(C(=O)N[C@@H](C)CO)n1 (single isomer, unassigned) [Example 33] | – |
| – | – | < 100 | [2H]C([2H])([2H])c1ccc(C(O)(CO)C(F)(F)F)cc1-c1cnc(N)c(C(=O)N[C@@H](C)CO)n1 (single isomer, unassigned) [Example 33] | – |
| ≤ 0.1 | ≤ 0.1 | – | Cc1ccc(C(O)(CO)C(F)(F)F)cc1-c1cnc(N)c(C(=O)NCC(C)(C)C#N)n1 (single isomer, unassigned) [Example 34] | – |
| – | – | < 100 | [2H]C([2H])([2H])c1ccc(C(O)(CO)C(F)(F)F)cc1-c1cnc(N)c(C(=O)NCC(C)(C)C#N)n1 (single isomer, unassigned) [Example 34] | – |
| ≤ 0.1 | ≤ 0.1 | – | Cc1ccc(C(O)(CO)C(F)(F)F)cc1-c1cnc(N)c(C(=O)NC23CCC(O)(CC2)C3)n1 (single isomer, unassigned) [Example 35] | – |
| – | – | < 100 | [2H]C([2H])([2H])c1ccc(C(O)(CO)C(F)(F)F)cc1-c1cnc(N)c(C(=O)NC23CCC(O)(CC2)C3)n1 (single isomer, unassigned) [Example 35] | – |
| ≤ 0.1 | ≤ 0.1 | – | Cc1ccc(C(O)(CO)C(F)(F)F)cc1-c1cnc(N)c(C(=O)N[C@H](C)CO)n1 (single isomer, unassigned) [Example 36] | – |
| – | – | < 500 | [2H]C([2H])([2H])c1ccc(C(O)(CO)C(F)(F)F)cc1-c1cnc(N)c(C(=O)N[C@H](C)CO)n1 (single isomer, unassigned) [Example 36] | – |
